Experimental data published in US10969382B2, “Systems and methods for assessing data collected from an electrically active cell culture” (Axion BioSystems, Inc., priority 2015, dated 2021).
Entries after “also recorded” stand apart in the source; their conditions may differ.

Test system: cardiomyocyte culture
Assay: Global conduction velocity (GCV) of beat propagation measured on a microelectrode array
Type: cell-based
Details: increasing flecainide concentration; FIG. 8C
From the text: example, within 30 ms). FIG. 6A is a representation of an array of electrodes 22 of an exemplary well of a MEA 20 having electrodes 22 spaced 200 μm from one another in the vertical and horizontal directions. It is to be appreciated that the number of electrodes 22 and the spacing shown in FIG. 6A are for example purposes only and greater or fewer electrodes 22 can be used and the spacing can also differ from what is shown. […] The beat timestamps, or arrival times, on the neighboring beat receiving electrodes can be used to generate a data array of delay times, as shown in Table 1. […] For the exemplary beat shown in Table 1, the beat starting electrode 30 is represented by the data point in column 1, row 2. The delay time (tdi) at each electrode 22 is the difference between the beat arrival time (ti) on that particular beat receiving electrode 22 and the beat start time, to, at the beat starting electrode 30. tdi=ti−t0 The velocity at which a beat propagates through the cellular network, or the conduction velocity, is a useful parameter for assessing a cardiomyocyte culture. However, the conduction velocity can vary depending upon the location within the cell culture, and thus it is another example of a parameter that is subject to spatial variability. […]

O=C(NCC1CCCCN1)c1cc(OCC(F)(F)F)ccc1OCC(F)(F)F (stereo not shown) [flecainide]
conduction velocity using the GCV method: systematically reduced; also recorded: slows
